# Results: ChEMBL document CHEMBL4732247, “Discovery of A031 as effective proteolysis targeting chimera (PROTAC) androgen receptor (AR) degrader for the treatment of prostate cancer” (Eur J Med Chem, 2021)
# Key:
# VCaP [1] = experiment: Cytotoxicity against human VCaP cells assessed as growth inhibition at 1 uM after 4 days by CCK8 assay relative to control; assay type: functional; settings: 96 h, time 4 day, read-out: GI
# VCaP [2] = experiment: Cytotoxicity against human VCaP cells assessed as growth inhibition at 0.25 uM after 4 days by CCK8 assay relative to control; assay type: functional; settings: 96 h, time 4 day, read-out: GI
# VCaP [3] = experiment: Cytotoxicity against human VCaP cells assessed as growth inhibition at 0.5 uM after 4 days by CCK8 assay relative to control; assay type: functional; settings: 96 h, time 4 day, read-out: GI
# VCaP [4] = experiment: Cytotoxicity against human VCaP cells assessed as growth inhibition at 0.125 uM after 4 days by CCK8 assay relative to control; assay type: functional; settings: 96 h, time 4 day, read-out: GI
# VCaP [5] = experiment: Cytotoxicity against human VCaP cells assessed as growth inhibition after 4 days by CCK8 assay; assay type: functional, cell-based; settings: dose 0.032-4 µM, time 4.0 day
# VCaP [6] = experiment: Cytotoxicity against human VCaP cells assessed as growth inhibition at 0.8 uM after 4 days by CCK8 assay relative to control; assay type: functional; settings: 96 h, time 4 day, read-out: GI
# VCaP [7] = experiment: Cytotoxicity against human VCaP cells assessed as growth inhibition at 4 uM after 4 days by CCK8 assay relative to control; assay type: functional; settings: 96 h, time 4 day, read-out: GI
Compound,inhibition of growth at 1 µM (VCaP [1]),inhibition of growth at 0.25 µM (VCaP [2]),inhibition of growth at 0.5 µM (VCaP [3]),inhibition of growth at 0.125 µM (VCaP [4]),growth inhibition (GI) (VCaP [5]),inhibition of growth at 0.8 µM (VCaP [6]),inhibition of growth at 4 µM (VCaP [7])
C[C@@]12C[C@H](NC(=O)c3ccc(N4CCN(CCCCCCCCCNc5ccc6c(c5)C(=O)N(C5CCC(=O)NC5=O)C6=O)CC4)cc3)C[C@]1(C)C[C@@H](Oc1ccc(C#N)c(Cl)c1)C2 (some centres undefined),25%,18%,24.3%,–,–,–,–
N#Cc1ccc(O[C@H]2C[C@H]3CC[C@@H](C2)N3C(=O)c2cnc(N3CCN(CCCCCCNc4ccc5c(c4)C(=O)N(C4CCC(=O)NC4=O)C5=O)CC3)nc2)cc1Cl (some centres undefined),38.9%,36.3%,37.8%,31.7%,–,–,–
C[C@@]12C[C@H](NC(=O)c3ccc(N4CCN(CCCCCCCNc5ccc6c(c5)C(=O)N(C5CCC(=O)NC5=O)C6=O)CC4)cc3)C[C@]1(C)C[C@@H](Oc1ccc(C#N)c(Cl)c1)C2 (some centres undefined),14.8%,14%,14.3%,7.46%,–,–,–
Cc1ncsc1-c1ccc(CNC(=O)[C@@H]2C[C@@H](O)CN2C(=O)[C@@H](NC(=O)COCCN2CCN(c3ccc(C(=O)N4[C@@H]5CC[C@H]4C[C@@H](Oc4ccc(C#N)c(Cl)c4)C5)cc3)CC2)C(C)(C)C)cc1,64.6%,31.1%,56.6%,18.5%,–,–,–
Cc1ncsc1-c1ccc([C@H](C)NC(=O)[C@@H]2C[C@@H](O)CN2C(=O)[C@@H](NC(=O)COCCN2CCN(c3cnc(C(=O)N4[C@@H]5CC[C@H]4C[C@@H](Oc4ccc(C#N)c(Cl)c4)C5)cn3)CC2)C(C)(C)C)cc1,72.3%,52%,61.5%,42.4%,–,–,–
N#Cc1ccc(O[C@H]2C[C@H]3CC[C@@H](C2)N3C(=O)c2cnc(N3CCN(CCCCCNc4cccc5c4C(=O)N(C4CCC(=O)NC4=O)C5=O)CC3)nc2)cc1Cl (some centres undefined),36.9%,24.6%,30.1%,20%,Dose-dependent effect,–,–
C[C@@]12C[C@H](NC(=O)c3ccc(N4CCN(CCCCCCNc5ccc6c(c5)C(=O)N(C5CCC(=O)NC5=O)C6=O)CC4)cc3)C[C@]1(C)C[C@@H](Oc1ccc(C#N)c(Cl)c1)C2 (some centres undefined),35.3%,31.8%,34.5%,30.7%,–,–,–
CN1CCC(N2CCC(C#Cc3ccc(C(=O)N4[C@@H]5CC[C@H]4C[C@@H](Oc4ccc(C#N)c(Cl)c4)C5)cc3)CC2)CC1,34%,23.3%,30.1%,14.9%,–,–,–
N#Cc1ccc(O[C@H]2C[C@H]3CC[C@@H](C2)N3C(=O)c2cnc(N3CCN(CCCNc4cccc5c4C(=O)N(C4CCC(=O)NC4=O)C5=O)CC3)nc2)cc1Cl (some centres undefined),30.4%,–,9.74%,–,Dose-dependent effect,–,–
Cc1ncsc1-c1ccc([C@H](CC(=O)NCCCCCCCCCN2CCN(c3ccc(C(=O)N4[C@@H]5CC[C@H]4C[C@@H](Oc4ccc(C#N)c(Cl)c4)C5)cc3)CC2)NC(=O)[C@H]2C[C@H](O)CN2C(=O)[C@H](NC(=O)C2(F)CC2)C(C)(C)C)cc1,55.2%,15.9%,29%,5.34%,–,–,–
Cc1ncsc1-c1ccc(CNC(=O)[C@@H]2C[C@@H](O)CN2C(=O)[C@@H](NC(=O)CN2CCN(c3ccc(C(=O)N4[C@@H]5CC[C@H]4C[C@@H](Oc4ccc(C#N)c(Cl)c4)C5)cc3)CC2)C(C)(C)C)cc1,86.7%,5.65%,35.1%,–,–,–,–
N#Cc1ccc(O[C@H]2C[C@H]3CC[C@@H](C2)N3C(=O)c2cnc(N3CCN(CCCCNc4ccc5c(c4)C(=O)N(C4CCC(=O)NC4=O)C5=O)CC3)nc2)cc1Cl (some centres undefined),53.1%,22.2%,36.5%,10.2%,–,–,–
Cc1ncsc1-c1ccc(CNC(=O)[C@@H]2C[C@@H](O)CN2C(=O)[C@@H](NC(=O)CCN2CCN(c3ccc(C(=O)N4[C@@H]5CC[C@H]4C[C@@H](Oc4ccc(C#N)c(Cl)c4)C5)cc3)CC2)C(C)(C)C)cc1,61.2%,2.74%,18.2%,1.87%,–,–,–
N#Cc1ccc(O[C@H]2C[C@H]3CC[C@@H](C2)N3C(=O)c2cnc(N3CCN(CCCCCCNc4cccc5c4C(=O)N(C4CCC(=O)NC4=O)C5=O)CC3)nc2)cc1Cl (some centres undefined),40.5%,23.5%,32.1%,10.1%,Dose-dependent effect,–,–
Cc1ncsc1-c1ccc([C@H](C)NC(=O)[C@@H]2C[C@@H](O)CN2C(=O)[C@@H](NC(=O)COCCN2CCN(c3ccc(C(=O)N4[C@@H]5CC[C@H]4C[C@@H](Oc4ccc(C#N)c(Cl)c4)C5)nc3)CC2)C(C)(C)C)cc1,43.2%,25.6%,33.9%,18.8%,–,–,–
Cc1ncsc1-c1ccc([C@H](CC(=O)NCCCCCCCCN2CCN(c3ccc(C(=O)N4[C@@H]5CC[C@H]4C[C@@H](Oc4ccc(C#N)c(Cl)c4)C5)cc3)CC2)NC(=O)[C@H]2C[C@H](O)CN2C(=O)[C@H](NC(=O)C2(F)CC2)C(C)(C)C)cc1,44.7%,11.3%,24.1%,–,–,–,–
N#Cc1ccc(O[C@H]2C[C@H]3CC[C@@H](C2)N3C(=O)c2cnc(N3CCN(CCCCNc4cccc5c4C(=O)N(C4CCC(=O)NC4=O)C5=O)CC3)nc2)cc1Cl (some centres undefined),50.4%,29%,44.4%,19%,Dose-dependent effect,–,–
Cc1ncsc1-c1ccc([C@H](C)NC(=O)[C@@H]2C[C@@H](O)CN2C(=O)[C@@H](NC(=O)COCCN2CCN(c3ccc(C(=O)N4[C@@H]5CC[C@H]4C[C@@H](Oc4ccc(C#N)c(Cl)c4)C5)cn3)CC2)C(C)(C)C)cc1,72.5%,7.23%,63.6%,28.4%,–,–,–
N#Cc1ccc(O[C@H]2C[C@H]3CC[C@@H](C2)N3C(=O)c2cnc(N3CCN(CCCCCNc4ccc5c(c4)C(=O)N(C4CCC(=O)NC4=O)C5=O)CC3)nc2)cc1Cl (some centres undefined),34.9%,31.4%,34.2%,20.4%,–,–,–
Cc1ncsc1-c1ccc([C@H](C)NC(=O)[C@@H]2C[C@@H](O)CN2C(=O)[C@@H](NC(=O)COCCN2CCN(c3ccc(C(=O)N4[C@@H]5CC[C@H]4C[C@@H](Oc4ccc(C#N)c(Cl)c4)C5)nn3)CC2)C(C)(C)C)cc1,28.1%,6.65%,12.5%,–,–,–,–
Cc1ncsc1-c1ccc([C@H](CC(=O)NCCCCCCCN2CCN(c3ccc(C(=O)N4[C@@H]5CC[C@H]4C[C@@H](Oc4ccc(C#N)c(Cl)c4)C5)cc3)CC2)NC(=O)[C@H]2C[C@H](O)CN2C(=O)[C@H](NC(=O)C2(F)CC2)C(C)(C)C)cc1,29.8%,2.18%,14.5%,–,–,–,–
N#Cc1ccc(O[C@H]2C[C@H]3CC[C@@H](C2)N3C(=O)c2ccc(N3CCN(CCCCCCCCCOc4cccc5c4C(=O)N(C4CCC(=O)NC4=O)C5=O)CC3)cc2)cc1Cl (some centres undefined),–,–,–,–,Dose-dependent effect,21.9%,30.6%
C[C@@]12C[C@H](NC(=O)c3ccc(N4CCN(CCCCCCCCNc5ccc6c(c5)C(=O)N(C5CCC(=O)NC5=O)C6=O)CC4)cc3)C[C@]1(C)C[C@@H](Oc1ccc(C#N)c(Cl)c1)C2 (some centres undefined),26%,19.5%,24.6%,6.05%,–,–,–
N#Cc1ccc(O[C@H]2C[C@H]3CC[C@@H](C2)N3C(=O)c2cnc(N3CCN(CCCCCCCNc4ccc5c(c4)C(=O)N(C4CCC(=O)NC4=O)C5=O)CC3)nc2)cc1Cl (some centres undefined),30.4%,30.7%,35.2%,28.1%,–,–,–
C[C@@]12C[C@H](NC(=O)c3ccc(N4CCN(CCCCCNc5ccc6c(c5)C(=O)N(C5CCC(=O)NC5=O)C6=O)CC4)cc3)C[C@]1(C)C[C@@H](Oc1ccc(C#N)c(Cl)c1)C2 (some centres undefined),44.5%,30.3%,38.1%,24.1%,–,–,–
Cc1ncsc1-c1ccc([C@H](C)NC(=O)[C@@H]2C[C@@H](O)CN2C(=O)[C@@H](NC(=O)COCCN2CCN(c3ccc(C(=O)N4[C@@H]5CC[C@H]4C[C@@H](Oc4ccc(C#N)c(Cl)c4)C5)cc3)CC2)C(C)(C)C)cc1,76.2%,61.8%,70.6%,45%,–,–,–
N#Cc1ccc(O[C@H]2C[C@H]3CC[C@@H](C2)N3C(=O)c2cnc(N3CCN(CCCCCCCNc4cccc5c4C(=O)N(C4CCC(=O)NC4=O)C5=O)CC3)nc2)cc1Cl (some centres undefined),37.5%,27.4%,28.3%,26.7%,Dose-dependent effect,–,–
N#Cc1ccc(O[C@H]2C[C@H]3CC[C@@H](C2)N3C(=O)c2cnc(N3CCN(CCCNc4ccc5c(c4)C(=O)N(C4CCC(=O)NC4=O)C5=O)CC3)nc2)cc1Cl (some centres undefined),42.4%,25.6%,30.1%,17.1%,–,–,–
